{"source": "patent US20140113958A1", "about": "“HCV Combination Therapy” (priority 2011, published 2014)", "key": {"[1]": {"tested_on": "HCV genotype Ib replicon (I389luc-ubi-neo/NS3-3′/ET) in Huh-luc/neo-ET cells", "format": "cell-based", "experimental": "(§1) The anti-viral efficacy and cellular toxicity of non-transfected antimiR oligonucleotide in combination with approved and experimental anti-HCV therapeutics (e.g. NM283, 2′-C-methylcytidine, and/or VX-222) (or other NS5B polymerase inhibitors) was determined in the reporter cell line Huh-luc/neo-ET. This cell line harbors the persistently replicating I389luc-ubi-neo/NS3-3′/ET replicon containing the firefly luciferase gene-ubiquitin-neomycin phosphotransferase fusion protein and EMCV IRES driven NS3-5B HCV coding sequences containing the ET tissue culture adaptive mutations (E1202G, T1208I, and K1846T). Eight dilutions of non-transfected antimiR oligonucleotide (bracketing the calculated EC50) were evaluated in triplicate on duplicate sets of three plates with five dilutions of each of the control compounds (bracketing the calculated EC50). One set of plates was used for the determination of cellular toxicity and the other set of plates was used for the determination of anti-viral efficacy. The efficacy and toxicity results was quantified with firefly luciferase activity and XTT dye reduction, respectively, and the results of the assay is imported into the Prichard and Shipman MacSynergy II software program. The MacSynery II analysis includes calculation of the dose response of the two (or more) compounds when used alone followed by calculation of the expected additive level of antiviral inhibition or toxicity when the compounds are used together based on the individual dose response curves. The expected level of activity at each of the concentration data points was compared to the experimentally determined antiviral activity in the assay. The expected activity was subtracted from the realized activity, yielding a negative, zero or positive value. These values are plotted as a three dimensional representation of the data and the result is reported as a two-factor value, expressing the combined average above the expected level of activity (synergy volume) and the combined average below the expected level of activity (antagonism volume). Combination analysis was performed two or more times for each pair of test compound and control substance.\n(§2) The reporter cell line Huh-luc/neo-ET was obtained from Dr. Ralf Bartenschlager (Department of Molecular Virology, Hygiene Institute, University of Heidelberg, Germany) by ImQuest BioSciences. This cell line harbors the persistently replicating 1389luc-ubi-neo/NS3-3′IET replicon containing the firefly luciferase gene-ubiquitinneomycin phosphotransferase fusion protein and EMCV IRES driven NS3-5B HCV coding sequences containing the ET tissue culture adaptive mutations (E 1202G, T12081, and KI846T). A stock culture of the Huh-luc/neo-ET was expanded by culture in DMEM supplemented with 10% FBS, 2 mM glutamine, penicillin (100 IU/mL)/streptomycin (100 f·Ig/mL) and IX nonessential amino acids plus I mg/ml G418. Prior to plating, the cells were split 1:4 and cultured for two passages in the same medium plus 250 f·Ig/mL G418. The cells were treated with trypsin and enumerated by staining with trypan blue and seeded into 96-well tissue culture plates at a cell culture density 5.0×10^3 cells per well in a volume of 85 f·IL per well and incubated at […] in an environment of 5% CO2 for 24 hours. Six plates were established for the determination of combination efficacy (EC50) and cytotoxicity (TC50) for each of the compound combinations (three plates each for efficacy and toxicity). Following the 24 hour incubation, eight 2-fold serial dilutions of SPC3649 in cell culture medium without G418 were prepared (final in well high test concentration of 1.20 μM to 2.40 μM) and added to the cells and five 2-fold or 5-fold serial dilutions of control compounds in cell culture medium without G418 were prepared and added to the cells."}, "[2]": {"tested_on": "Huh-luc/neo-ET cells", "test": "Cellular toxicity by XTT dye reduction in Huh-luc/neo-ET cells", "experimental": "as §1\nas §2, with “Following the 24 hour incubation, eight 2-fold serial dilutions of SPC3649 in cell culture medium without G418 were prepared (final in well high test concentration of 1.20 μM to 2.40 μM) and added to the cells and five 2-fold or 5-fold serial dilutions of control compounds in cell culture medium without G418 were prepared and added to the cells.” left out"}, "[3]": {"tested_on": "HCV genotype 1b replicon NS5A Y93H", "format": "cell-based", "details": "EC50 mutant / EC50 wild-type; mean of two experiments (individual values)", "experimental": "(§3) The in vitro antiviral of miravirsen was evaluated against wild-type HCV genotype 1b replicon and HCV genotype 1b replicons constructed to contain key amino acid substitutions in NS3 protease (A156T, R155K), NS5B polymerase (S282T, M423I) and NS5A protein (Y93H) in transient transfection assays utilizing Huh 7 cells. […] Huh 7 cells were transfected with either the wild-type or the mutant RNA constructs by electroporation. Luciferase activity was measured 72 hours after compound treatment and EC50 values determined from dose-response curves. Fold resistance was expressed as the ratio of the EC50 for mutant HCV replicon to the EC50 for wild-type HCV replicon.\n(§4) The in vitro antiviral of miravirsen was evaluated against wild-type HCV genotype 1b replicon and HCV replicons constructed to contain key amino acid substitutions in NS3 protease (A156T, R155K), NS5B polymerase (S282T, M423I) and NS5A protein (Y93H) in transient transfection assays. […] Huh 7 cells were transfected with either the wild type or the mutant RNA constructs by electroporation. Luciferase activity was measured 72 hours after compound treatment and EC50 values determined from dose-response curves. Fold resistance was expressed as the ratio of the EC50 for mutant HCV replicon to the EC50 for wild-type HCV replicon. Results are expressed as the mean of two individual experiments. In an initial set of experiments, the standard protocol was modified by adding compounds 24 hours after electroporation. […] In a third experiment cells were pretreated with miravirsen for 24 hours before electroporation with wild-type RNA constructs to determine if preincubation could result in increased miravirsen antiviral activity."}, "[4]": {"tested_on": "Huh-luc/neo-ET HCV genotype Ib replicon cells", "format": "cell-based", "details": "selection with G418, 28 days", "experimental": "Cell culture and Assay setup: The reporter cell line Huh-luc/neo-ET was obtained and prepare as described previously. Cells were plated into 10 cm tissue culture dishes at a density of 3×10^5 cells per plate in culture medium containing 250 μg/ml G418 and incubated for 24 hours at 37° C. in an environment of 5% C02. Following the 24 hour incubation, dilutions of SPC3649, SPC4729, or telaprevir were prepared in cell culture medium (as above) with 750 μg/ml G418. Each of the dilutions was added to duplicate plates and the plates were incubated at 37° C. in an environment of 5% CO^2. Two additional plates received cell culture medium with 750 μg/ml G418 as a no-treatment control. […] The final concentration of SPC4729 was 10.0 μM. […] Following 28 days of passage, one set of dishes was stained with crystal violet and the other set of plates was utilized for expansion and establishment of resistant cell culture stocks.\nHuh-luc/neo-ET HCY genotype Ib replicon cells were cultured under selective pressure in the presence of 750 μg/mL G4 I8 with and without four independent fixed concentrations of SPC3649 anti-miR oligonucleotide, or telaprevir, or one concentration of scrambled oligonucleotide SPC4729 for 28 days in tissue culture plates. Duplicate tissue culture dishes were established and maintained for each culture condition. Medium was replaced bi-weekly during the 28 days of culture and the cells were split at the time of medium replenishment to maintain a confluent cell culture monolayer. Following four weeks in culture, cells were either fixed with methanol and stained with crystal violet or expanded for subsequent phenotypic and genotypic characterization."}, "[5]": {"tested_on": "HCV genotype 1b replicon NS5B M423I", "format": "cell-based", "details": "EC50 mutant / EC50 wild-type; mean of two experiments (individual values)", "experimental": "as §3, §4"}, "[6]": {"tested_on": "HCV genotype 1b replicon NS3 A156T", "format": "cell-based", "details": "EC50 mutant / EC50 wild-type; mean of two experiments (individual values)", "experimental": "as §3, §4"}, "[7]": {"tested_on": "HCV genotype 1b replicon NS3 R155K", "format": "cell-based", "details": "EC50 mutant / EC50 wild-type; mean of two experiments (individual values)", "experimental": "as §3, §4"}, "[8]": {"tested_on": "HCV genotype 1b replicon NS5B S282T", "format": "cell-based", "details": "EC50 mutant / EC50 wild-type, mean of two experiments (individual values)", "experimental": "as §3, §4"}, "[9]": {"details": "second drug in combination with miravirsen (SPC3649), 95% confidence interval, median (≧3 experiments) or individual values"}, "[10]": {"details": "second drug in combination with miravirsen (SPC3649), overall"}, "[11]": {"details": "second drug in combination with miravirsen (SPC3649), 95% confidence interval, median or individual values"}, "[12]": {"details": "in combination with ribavirin, 95% confidence level"}}, "note": "Where “and” joins values, the source holds several entries; their conditions need not be identical. Equal values may be shown once. Entries after “also recorded” stand apart in the source; their conditions may differ. Read-outs that look alike come from different tables or passages of the source.", "data": [{"compound": "COC(=O)N[C@H](C(=O)N1CCC[C@H]1c1nc(-c2ccc(-c3ccc(-c4c[nH]c([C@@H]5CCCN5C(=O)[C@@H](NC(=O)OC)C(C)C)n4)cc3)cc2)c[nH]1)C(C)C", "note": "[BMS 790052, Dimethyl (2S,2′S)-1,1′-((2S,2′S)-2,2′-(4,4′-(biphenyl-4,4′-diyl)bis(1H-imidazole-4,2-diyl))bis(pyrrolidine-2,1-diyl))bis(3-methyl-1-oxobutane-2,1-diyl)dicarbamate]", "values": [{"measurement": "Efficacy, Antagonism vol", "setting": "[1]; [9]", "value": "−25.5 μM^2% and −0.1 μM^2% and 0/−24.5; μM^2% and 18.46/−0.06 μM^2%"}, {"measurement": "Interaction", "setting": "[1]; [10]", "value": "Positive"}, {"measurement": "Cytotoxicity, Antagonism vol", "setting": "[2]; [11]", "value": "−21.9", "unit": "μM^2%"}, {"measurement": "Cytotoxicity, Synergy vol", "setting": "[2]; [11]", "value": 0, "unit": "μM^2%"}, {"measurement": "fold change in susceptibility, NS5A Y93H", "setting": "[3]", "value": "29.9 fold and 29.9 (32.7, 27.0) fold"}]}, {"compound": "NC(=O)c1ncn([C@@H]2O[C@H](CO)[C@@H](O)[C@H]2O)n1", "note": "[Ribavirin, 1-[(2R,3R,4S,5R)-3,4-dihydroxy-5-(hydroxymethyl)oxolan-2-yl]-1H-1,2,4-triazole-3-carboxamide]", "values": [{"measurement": "Interaction", "setting": "[1]", "value": "Positive"}, {"measurement": "antagonism volume", "setting": "[1]", "value": "−292.6", "unit": "μM^2%"}, {"measurement": "interaction in individual assay replicates", "setting": "[1]", "value": "additive interaction; also recorded: highly antagonistic interaction"}]}, {"compound": "5′-Ts.^ocsAs.^otsas.^mCs.^oTs.^oastsAs.^otsGs.^oas.^mCs.^oA.^o-3′ [SPC4729]", "values": [{"measurement": "Efficacy, Synergy vol", "setting": "[1]", "value": "0.00/−177.6 μM^2%"}, {"measurement": "overall antiviral interaction", "setting": "[1]; in combination with ribavirin", "value": "antagonistic"}, {"measurement": "Efficacy, Antag Vol", "setting": "[1]; in combination with ribavirin, 95% confidence level, individual values", "value": "0.00/−177.6 μM^2%"}, {"measurement": "impact of combination on in vitro cytotoxicity", "setting": "[2]; in combination with ribavirin", "value": "slight higher cytotoxicity"}, {"measurement": "Cytotoxicity, Antag Vol", "setting": "[2]; [12]", "value": "−44.3", "unit": "μM^2%"}, {"measurement": "Cytotoxicity, Synergy vol", "setting": "[2]; [12]", "value": 0.00, "unit": "μM^2%"}, {"measurement": "rate of cell expansion", "setting": "[4]", "value": "did not decrease the rate of cell expansion"}]}, {"compound": "CC(C)(C)C#Cc1cc(N(C(=O)[C@H]2CC[C@H](C)CC2)[C@H]2CC[C@H](O)CC2)c(C(=O)O)s1", "note": "[VX-222]", "values": [{"measurement": "Efficacy, Antagonism vol", "setting": "[1]; [9]", "value": "−34.4 μM^2% and −4.27 μM^2% and 4.81/−34.44; μM^2% and 0.82/−4.27 μM^2%"}, {"measurement": "Interaction", "setting": "[1]; [10]", "value": "Positive"}, {"measurement": "Cytotoxicity, Antagonism vol", "setting": "[2]; [11]", "value": "−28.6 μM^2% and 0 μM^2%"}, {"measurement": "Cytotoxicity, Synergy vol", "setting": "[2]; [11]", "value": 0, "unit": "μM^2%"}, {"measurement": "fold change in susceptibility, NS5B M423I", "setting": "[5]", "value": "4.4 fold and 4.4 (3.6, 5.2) fold"}]}, {"compound": "C[C@@]1(O)[C@H](O)[C@@H](CO)O[C@H]1n1ccc(N)nc1=O", "note": "[2′-C-Methylcytidine, 2′-C-methylcytidine]", "values": [{"measurement": "interaction in individual assay replicates", "setting": "[1]; in combination with SPC 3649, part of the replicates, listed as 2-methyl cytidine", "value": "positive interactions; also recorded: slightly antagonistic interaction"}, {"measurement": "Efficacy, Antagonism vol", "setting": "[1]; [9]", "value": "−27.6", "unit": "μM^2%"}, {"measurement": "Efficacy, Synergy vol", "setting": "[1]; [9]", "value": 0, "unit": "μM^2%"}, {"measurement": "Efficacy, Synergy vol", "setting": "[1]; second drug in combination with miravirsen (SPC3649), 95% confidence interval, median (≧3 experiments) or individual values, listed as 2-methyl cytidine", "value": 0.0, "unit": "μM^2%"}, {"measurement": "Interaction", "setting": "[1]; [10]", "value": "Positive"}, {"measurement": "Interaction", "setting": "[1]; second drug in combination with miravirsen (SPC3649), overall, listed as 2-methyl cytidine", "value": "positive interaction"}, {"measurement": "Cytotoxicity, Antagonism vol", "setting": "[2]; [11]", "value": "−0.67", "unit": "μM^2%"}, {"measurement": "Cytotoxicity, Synergy vol", "setting": "[2]; [11]", "value": 0, "unit": "μM^2%"}, {"measurement": "fold change in susceptibility, NS3 A156T", "setting": "[6]", "value": "0.9 (1.0, 0.8) fold"}, {"measurement": "fold change in susceptibility, NS3 R155K", "setting": "[7]", "value": "0.8 (1.0, 0.6) fold"}, {"measurement": "fold change in susceptibility, NS5A Y93H", "setting": "[3]", "value": "1.0 (1.2, 0.8) fold"}, {"measurement": "fold change in susceptibility, NS5B M423I", "setting": "[5]", "value": "1.0 (0.9, 1.1) fold"}, {"measurement": "fold change in susceptibility, NS5B S282T", "setting": "[8]; listed as 2′Me-C", "value": "42.8 fold and 45.8 fold"}, {"measurement": "fold change in susceptibility, NS5B S282T", "setting": "[8]; listed as 2′Me—C", "value": "45.8 (49.3, 42.3) fold"}]}]}
